Source: patent US20130281467A1, “NOVEL MICROBICIDES” (SYNGENTA PARTICIPATIONS AG, priority 2010, published 2013)

Assays:
[1] = system: Thanatephorus cucumeris (Rhizoctonia solani); test: Fungicidal activity against Thanatephorus cucumeris (Rhizoctonia solani) / liquid culture (foot rot, damping-off); type: cell-based; conditions: 3-4 days after application, read-out: disease control (inhibition of growth, photometrically)
Description: Fungicidal Activity Against Thanatephorus cucumeris (Rhizoctonia solani)/Liquid Culture (Foot Rot, Damping-Off) Mycelia fragments of a newly grown liquid culture of the fungus were directly mixed into nutrient broth (PDB potato dextrose broth). After placing a (DMSO) solution of the test compounds into a microtiter plate (96-well format), the nutrient broth containing the fungal material was added. The test plates were incubated at 24° C. and the inhibition of growth was determined photometrically 3-4 days after application.

[2] = system: Botryotinia fuckeliana (Botrytis cinerea); test: Fungicidal activity against Botryotinia fuckeliana (Botrytis cinerea) / liquid culture (gray mould); type: cell-based; conditions: 3-4 days after application, read-out: disease control (inhibition of growth, photometrically)
Description: (§1) Fungicidal Activity Against Botryotinia fuckeliana (Botrytis cinerea)/Liquid Culture (Gray Mould) Conidia of the fungus from cryogenic storage were directly mixed into nutrient broth (Vogels broth). After placing a (DMSO) solution of test compound into a microtiter plate (96-well format), the nutrient broth containing the fungal spores was added. The test plates were incubated at 24° C. and the inhibition of growth was determined photometrically 3-4 days after application.

[3] = system: Monographella nivalis (Microdochium nivale); test: Fungicidal activity against Monographella nivalis (Microdochium nivale) / liquid culture (foot rot cereals); type: cell-based; conditions: 4-5 days after application, read-out: disease control (inhibition of growth, photometrically)
Description: as §1, with “Monographella nivalis (Microdochium nivale)/Liquid” for “Botryotinia fuckeliana (Botrytis cinerea)/Liquid”, “(Foot Rot Cereals)” for “(Gray Mould)”, “(PDB potato dextrose” for “(Vogels”, “4-5” for “3-4”

[4] = system: Mycosphaerella graminicola (Septoria tritici); test: Fungicidal activity against Mycosphaerella graminicola (Septoria tritici) / liquid culture (Septoria blotch); type: cell-based; conditions: Zymoseptoria tritici, 4-5 days after application, read-out: disease control (inhibition of growth, photometrically)
Description: as §1, with “Mycosphaerella graminicola (Septoria tritici)/Liquid” for “Botryotinia fuckeliana (Botrytis cinerea)/Liquid”, “(Septoria Blotch)” for “(Gray Mould)”, “(PDB potato dextrose” for “(Vogels”, “4-5” for “3-4”

[5] = system: Blumeria graminis f. Sp. tritici (Erysiphe graminis f. sp. tritici); test: Fungicidal activity against Blumeria graminis f. sp. tritici / wheat / leaf disc preventative (powdery mildew on wheat); type: in vivo; conditions: foliar, wheat leaf segments, inoculated 1 day after application, compared to untreated, read-out: disease control
Description: Fungicidal Activity Against Blumeria graminis f. Sp. tritici (Erysiphe graminis f. sp. tritici)/Wheat/Leaf Disc Preventative (Powdery Mildew on Wheat)
Wheat leaf segments cv. Kanzler were placed on agar in a multiwell plate (24-well format) and sprayed with the formulated test compound diluted in water. The leaf disks were inoculated by shaking powdery mildew infected plants above the test plates 1 day after application. The inoculated leaf disks were incubated at 20° C. and 60% rh under a light regime of 24 h darkness followed by 12 h light/12 h darkness in a climate chamber and the activity of a compound was assessed as percent disease control compared to untreated when an appropriate level of disease damage appears on untreated check leaf segments (6-8 days after application).

Gaeumannomyces graminis = test: Fungicidal activity against Gaeumannomyces graminis / liquid culture (take-all of cereals); type: cell-based; conditions: 4-5 days after application, read-out: disease control (inhibition of growth, photometrically)
Description: (§2) Fungicidal Activity Against Gaeumannomyces graminis/Liquid Culture (Take-all of Cereals) Mycelial fragments of the fungus from cryogenic storage were directly mixed into nutrient broth (PDB potato dextrose broth). After placing a (DMSO) solution of test compound into a microtiter plate (96-well format), the nutrient broth containing the fungal spores iss added. The test plates were incubated at 24° C. and the inhibition of growth was determined photometrically 4-5 days after application.

Pyrenophora teres = test: Fungicidal activity against Pyrenophora teres / barley / leaf disc preventative (net blotch); type: in vivo; conditions: foliar, barley leaf segments, inoculated 2 days after application, compared to untreated, read-out: disease control
Description: Fungicidal Activity Against Pyrenophora teres/Barley/Leaf Disc Preventative (Net Blotch) Barley leaf segments cv. Hasso were placed on agar in a multiwell plate (24-well format) and sprayed with the formulated test compound diluted in water. The leaf segments were inoculated with a spore suspension of the fungus 2 days after application. The inoculated leaf segments were incubated at 20° C. and 65% rh under a light regime of 12 h light/12 h darkness in a climate cabinet and the activity of a compound was assessed as disease control compared to untreated when an appropriate level of disease damage appears in untreated check leaf segments (5-7 days after application).

[6] = system: Mycosphaerella arachidis (Cercospora arachidicola); test: Fungicidal activity against Mycosphaerella arachidis (Cercospora arachidicola) / liquid culture (early leaf spot); type: cell-based; conditions: 4-5 days after application, read-out: disease control (inhibition of growth, photometrically)
Description: as §2, with “Mycosphaerella arachidis (Cercospora arachidicola)/Liquid” for “Gaeumannomyces graminis/Liquid”, “(Early Leaf Spot) Conidia” for “(Take-all of Cereals) Mycelial fragments”, “was” for “iss”

[7] = system: Puccinia recondita f. sp. tritici; test: Fungicidal activity against Puccinia recondita f. sp. tritici / wheat / leaf disc preventative (brown rust); type: in vivo; conditions: foliar, wheat leaf segments, inoculated 1 day after application, compared to untreated, read-out: disease control
Description: Fungicidal Activity Against Puccinia recondita f. sp. tritici/Wheat/Leaf Disc Preventative (Brown Rust) Wheat leaf segments cv. Kanzler were placed on agar in multiwell plates (24-well format) and sprayed with the formulated test compound diluted in water. The leaf disks were inoculated with a spore suspension of the fungus 1 day after application. The inoculated leaf segments were incubated at 19° C. and 75% rh under a light regime of 12 h light/12 h darkness in a climate cabinet and the activity of a compound was assessed as percent disease control compared to untreated when an appropriate level of disease damage appears in untreated check leaf segments (7-9 days after application).

[8] = system: Glomerella lagenarium (Colletotrichum lagenarium); test: Fungicidal activity against Glomerella lagenarium (Colletotrichum lagenarium) / liquid culture (anthracnose); type: cell-based; conditions: Colletotrichum orbiculare, 3-4 days after application, read-out: disease control (inhibition of growth, photometrically)
Description: as §2, with “Glomerella lagenarium (Colletotrichum lagenarium)/Liquid” for “Gaeumannomyces graminis/Liquid”, “(Anthracnose) Conidia” for “(Take-all of Cereals) Mycelial fragments”, “was” for “iss”, “measured” for “determined”, “3-4” for “4-5”

[9] = system: Phaeosphaeria nodorum (Septoria nodorum); test: Fungicidal activity against Phaeosphaeria nodorum (Septoria nodorum) / wheat / leaf disc preventative (glume blotch); type: in vivo; conditions: Parastagonospora nodorum, foliar, wheat leaf segments, inoculated 2 days after application, compared to untreated, read-out: disease control
Description: Fungicidal Activity Against Phaeosphaeria nodorum (Septoria nodorum)/Wheat/Leaf Disc Preventative (Glume Blotch) Wheat leaf segments cv. Kanzler were placed on agar in a multiwell plate (24-well format) and sprayed with the formulated test compound diluted in water. The leaf disks were inoculated with a spore suspension of the fungus 2 days after application. The inoculated test leaf disks were incubated at 20° C. and 75% rh under a light regime of 12 h light/12 h darkness in a climate cabinet and the activity of a compound was assessed as percent disease control compared to untreated when an appropriate level of disease damage appears in untreated check leaf disks (5-7 days after application).

Alternaria solani = test: Fungicidal activity against Alternaria solani / tomato / leaf disc (early blight); type: in vivo; conditions: foliar, tomato leaf disks, inoculated 2 days after application, compared to untreated, read-out: disease control
Description: Fungicidal Activity Against Alternaria solani/Tomato/Leaf Disc (Early Blight) Tomato leaf disks cv. Baby were placed on agar in multiwell plates (24-well format) and sprayed with the formulated test compound diluted in water. The leaf disks were inoculated with a spore suspension of the fungus 2 days after application. The inoculated leaf disks were incubated at 23° C./21° C.

| SMILES | inhibition at 200 ppm [1] [%] | inhibition at 200 ppm [2] [%] | inhibition at 200 ppm [3] [%] | inhibition at 200 ppm [4] [%] | pest or weed control at 200 ppm [5] [%] | inhibition at 200 ppm (Gaeumannomyces graminis) [%] | melting point [°C] | pest or weed control at 200 ppm (Pyrenophora teres) [%] | inhibition at 200 ppm [6] [%] | pest or weed control at 200 ppm [7] [%] | inhibition at 200 ppm [8] [%] | pest or weed control at 200 ppm [9] [%] | pest or weed control at 200 ppm (Alternaria solani) [%] |
| --- | --- | --- | --- | --- | --- | --- | --- | --- | --- | --- | --- | --- | --- |
| Clc1ccc(Cc2cccc(-c3ncc4c(n3)CCCC4)n2)cn1 [Compound 1, 2-[6-(6-chloropyridin-3-ylmethyl)-pyridin-2-yl]-5,6,7,8-tetrahydroquinazoline] | ≥ 80 | ≥ 80 | ≥ 80 | ≥ 80 | ≥ 80 | ≥ 80 | 115 to 120 | ≥ 80 | ≥ 80 | ≥ 80 | ≥ 80 | ≥ 80 | – |
| c1ccc(Cc2cccc(-c3ncc4c(n3)CCOC4)n2)cc1 [Compound 2] | ≥ 80 | ≥ 80 | – | ≥ 80 | ≥ 80 | ≥ 80 | 244 to 245 | ≥ 80 | ≥ 80 | ≥ 80 | ≥ 80 | ≥ 80 | – |
| Clc1cccc(Cc2cccc(-c3ncc4c(n3)CCOC4)n2)c1 [Compound 4] | ≥ 80 | ≥ 80 | ≥ 80 | ≥ 80 | ≥ 80 | ≥ 80 | 148 to 149 | ≥ 80 | ≥ 80 | ≥ 80 | ≥ 80 | ≥ 80 | – |
| Cc1ccccc1Cc1cccc(-c2ncc3c(n2)CCOC3)n1 [Compound 6, 2-[6-(2-methylbenzyl)-pyridin-2-yl]-7,8-dihydro-5H-pyrano[4,3-d]pyrimidine] | – | ≥ 80 | ≥ 80 | ≥ 80 | ≥ 80 | ≥ 80 | 132 to 133 | ≥ 80 | ≥ 80 | ≥ 80 | ≥ 80 | ≥ 80 | ≥ 80 |
| CC1(C)CCc2cnc(-c3cccc(Cc4ccccc4)n3)nc2C1 [Compound 11] | ≥ 80 | ≥ 80 | ≥ 80 | ≥ 80 | ≥ 80 | ≥ 80 | 226 to 228 | ≥ 80 | ≥ 80 | ≥ 80 | ≥ 80 | ≥ 80 | – |
| CC1(C)CCc2cnc(-c3cccc(Cc4cccc(C#N)c4)n3)nc2C1 [Compound 17] | ≥ 80 | ≥ 80 | ≥ 80 | ≥ 80 | – | ≥ 80 | 222 to 223 | ≥ 80 | ≥ 80 | – | ≥ 80 | ≥ 80 | – |
| CO/N=C1\CCc2nc(-c3cccc(Cc4ccccc4)n3)ncc2C1 [Compound 18] | ≥ 80 | ≥ 80 | – | ≥ 80 | ≥ 80 | ≥ 80 | 175 to 177 | ≥ 80 | ≥ 80 | ≥ 80 | ≥ 80 | ≥ 80 | – |
| CO[C@@H]1CCc2nc(-c3cccc(Cc4ccccc4)n3)ncc2C1 [Compound 25] | – | ≥ 80 | ≥ 80 | ≥ 80 | ≥ 80 | – | – | ≥ 80 | ≥ 80 | ≥ 80 | ≥ 80 | ≥ 80 | ≥ 80 |
| Clc1ccccc1Cc1cccc(-c2ncc3c(n2)CCCCC3)n1 [Compound 33] | ≥ 80 | ≥ 80 | ≥ 80 | ≥ 80 | ≥ 80 | ≥ 80 | – | ≥ 80 | ≥ 80 | ≥ 80 | ≥ 80 | ≥ 80 | ≥ 80 |
| CC(c1ccccc1)c1cccc(-c2ncc3c(n2)CC(C)(C)CC3)n1 (stereo not shown) [Compound 45] | ≥ 80 | ≥ 80 | ≥ 80 | ≥ 80 | – | ≥ 80 | 136 to 138 | ≥ 80 | ≥ 80 | – | ≥ 80 | ≥ 80 | – |
